According to patent US9765082B2, “Crystalline form of tiotropium bromide with lactose” (EUTICALS SPA, priority 2014, dated 2017):

Legend:
[1] = 40° C. for few hours; literature data; cited from earlier work
[2] = Solid-state change of Tiotropium Bromide monohydrate on heating, by DRX; type: physicochemical; conditions: 40° C. at 50% UR for 72 hours, FIGS. 4 and 4A
Procedure: FIGS. 4 and 4A show the DRX spectra of a Tiotropium Bromide monohydrate before and after the heating at 40° C. at 50% UR for 72 hours.
In fact, this is an equilibrium that is driven by the relative humidity of the environment. […] See the enclosed DRX spectra of a Tiotropium Bromide monohydrate before and after the above described treatment (FIGS. 4 and 4A).

[3] = Stability of the crystalline form on storage, analyzed by DRX (powder); type: physicochemical; conditions: particularly polyethylene bag as primary packaging; driven by relative humidity
From the text: X-Ray Diffraction spectra were registered by means of diffractometer (Rigaku-D-Max) from a start angle [½ 2-theta] of 5.000 to 60.000. The diffraction diagrams were obtained employing a Cu anode (Kα=1,54060 Å and Kα=1,54439 Å). The HPLC method utilized to check the quality of Tiotropium Bromide in the examined samples is the same as described in the European Pharmacopoeia 7.0.

| Structure (SMILES) | Solid state after mild heating [1] | Solid state after heating (DRX) [2] | Crystalline form in the same storage conditions [3] |
| --- | --- | --- | --- |
| C[N+]1(C)[C@@H]2C[C@@H](OC(=O)C(O)(c3cccs3)c3cccs3)C[C@H]1[C@@H]1O[C@@H]12 [Tiotropium Bromide monohydrate] | easily transformed | changes into the corresponding anhydrous form |  |
| C[N+]1(C)[C@@H]2C[C@@H](OC(=O)C(O)(c3cccs3)c3cccs3)C[C@H]1[C@@H]1O[C@@H]12.[Br-] [Tiotropium Bromide, Tiotropium bromide] |  |  | may absorb or lose water, thus changing the crystalline form |
